The text below walks through data of patent US20140057915A1, “KINASE INHIBITORS” (TOPIVERT PHARMA LIMITED, priority 2012, published 2014).

One data set has as its target cSrc (Homo sapiens, UniProt P12931). Briefly: c-Src enzyme inhibition (FRET). Type of data set: biochemical. The settings on record: Table 4a1. An outline of the steps:
(§1)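 Kinase activity is measured on a dual-labelled synthetic peptide by FRET. ATP is supplied as an 800 μM solution for c-Src and a 60 μM solution for Syk. Compound is tested at four added concentrations, 4 to 0.004 μg/mL.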

In another data set the target is Syk (Homo sapiens, UniProt P43405). Put plainly: Syk enzyme inhibition (FRET). Format: biochemical. The settings on record: Table 4a1. The method in brief:
as §1

In another data set the target is GSK3α (Homo sapiens, UniProt P49840). Put plainly: GSK 3α enzyme inhibition (FRET), Method 1. Format: biochemical. The settings on record: Table 4a1. An outline of the steps:
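Inhibition is scored from phosphorylation of a dual-labelled synthetic peptide, measured by FRET after protease cleavage of unphosphorylated substrate. Incubations are 2 hr compound with enzyme, then 1 hr kinase reaction.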

Data set [1] has as its system TNFα release, d-U937 cells. Put plainly: LPS-induced TNFα release in d-U937 cells. The settings on record: Homo sapiens, dU937; relative to 10 μg/mL BIRB796; Table 4c1; read-out: LPS Induced Release of Cytokine in d-U937 Cells, TNFα REC50. Format: cell-based. An outline of the steps:
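Sandwich ELISA quantifies cytokine in supernatants after 4 hr LPS challenge (0.1 μg/mL) of PMA-differentiated (100 ng/mL, 48–72 hr) U937 macrophages given compound 2 hr beforehand. REC50 derived from concentration-response curve, inhibition calculated relative to vehicle.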

Data set [2] deals with IL-8 release, d-U937 cells. Put plainly: LPS-induced IL-8 release in d-U937 cells. Format: cell-based. The settings on record: Homo sapiens, dU937; Table 4c1; read-out: LPS Induced Release of Cytokine in d-U937 Cells, IL-8 IC50. The method in brief: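 IL-8 release after a 4 hr challenge with LPS (0.1 μg/mL, E. coli 0111:B4) following a 2 hr compound pretreatment. Cells were human U937 monocytes differentiated to macrophage-type with PMA 100 ng/mL for 48–72 hr. Relative 50% effective concentration derived from concentration–response data.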

The subject of data set [3] is ICAM-1 expression, BEAS2B cells. Put plainly: Poly I:C-induced ICAM-1 expression in BEAS2B cells. Format: cell-based. The settings on record: Homo sapiens, BEAS-2B; read-out: Poly IC induced ICAM1 in BEAS2B, IC50. The method in brief: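 Cell-based ELISA for surface ICAM-1 in human BEAS2B cells 18 h after transfection with the RNA-virus mimic poly I:C (1 μg/mL, with Oligofectamine), compounds added 2 h beforehand. OD450–655 divided by Crystal Violet OD595 per well; percent inhibition relative to vehicle.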

The next data set relates to d-U937 cells. Briefly: Cell viability: MTT assay. Format: cell-based, human. The settings on record: 1 μg/mL. The method in brief:
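MTT reduction (1 h, DMSO solubilisation, A550) measured after compound treatment at 1 or 10 μg/mL of differentiated U937 cells for 4 h (5% FCS RPMI1640) or 24 h (10% FCS). Percentage viability loss computed relative to 0.5% DMSO vehicle, with increases tabulated as negative values.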
In general terms: Formazan colour is commonly taken as a measure of viable cells.

Chain of GSK3α (P49840 whole entry): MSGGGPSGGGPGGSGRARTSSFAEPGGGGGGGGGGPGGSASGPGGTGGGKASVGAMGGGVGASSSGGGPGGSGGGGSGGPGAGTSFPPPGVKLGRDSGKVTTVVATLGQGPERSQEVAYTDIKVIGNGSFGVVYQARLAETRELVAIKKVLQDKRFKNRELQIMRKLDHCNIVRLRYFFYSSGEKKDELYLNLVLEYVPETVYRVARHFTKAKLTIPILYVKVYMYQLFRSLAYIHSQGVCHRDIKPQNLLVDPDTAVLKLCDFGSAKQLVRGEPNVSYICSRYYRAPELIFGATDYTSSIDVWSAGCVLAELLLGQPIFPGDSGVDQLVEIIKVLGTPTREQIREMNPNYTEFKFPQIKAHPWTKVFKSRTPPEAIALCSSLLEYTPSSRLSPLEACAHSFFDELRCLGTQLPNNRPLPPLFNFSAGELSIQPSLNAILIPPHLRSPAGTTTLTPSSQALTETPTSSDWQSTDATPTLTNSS
Chain of cSrc (P12931 whole entry): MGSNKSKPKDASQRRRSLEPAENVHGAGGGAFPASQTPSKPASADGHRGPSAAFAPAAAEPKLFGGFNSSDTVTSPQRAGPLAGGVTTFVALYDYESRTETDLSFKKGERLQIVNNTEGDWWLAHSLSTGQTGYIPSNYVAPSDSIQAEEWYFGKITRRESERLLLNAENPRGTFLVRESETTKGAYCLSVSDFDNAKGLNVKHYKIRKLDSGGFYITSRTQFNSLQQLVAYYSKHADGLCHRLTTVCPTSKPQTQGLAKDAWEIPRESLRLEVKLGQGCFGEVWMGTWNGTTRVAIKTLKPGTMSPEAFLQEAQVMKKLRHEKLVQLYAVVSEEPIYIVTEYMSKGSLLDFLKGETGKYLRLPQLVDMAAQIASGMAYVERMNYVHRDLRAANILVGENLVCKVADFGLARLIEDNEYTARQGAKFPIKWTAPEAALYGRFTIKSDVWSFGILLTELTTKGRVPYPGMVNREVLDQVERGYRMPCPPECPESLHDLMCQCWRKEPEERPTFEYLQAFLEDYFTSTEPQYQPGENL

With `COc1ccc(-n2nc(C(C)C)cc2NC(=O)Nc2ccc(Oc3ccnc(Nc4ccc(C(=O)NCCN5CCOCC5)cc4OC)n3)c3ccccc23)cc1` [Example 38, 4-((4-((4-(3-(3-isopropyl-1-(4-methoxyphenyl)-1H-pyrazol-5-yl)ureido)naphthalen-1-yl)oxy)pyrimidin-2-yl)amino)-3-methoxy-N-(2-morpholinoethyl)benzamide], the IC50 (commonly the concentration at which inhibition is half-maximal) on cSrc was 9 nM; on Syk, 54 nM; at GSK3α, above 13000 nM; in data set [2], 60.6 nM; in data set [3], 35.7 nM. Moreover, the EC50 in data set [1] amounted to 20.2 nM. For the same compound, in the data set on d-U937 cells, the “Cell viability at time point in d-U937 cells, 4 h” value was “−ve (−ve and +ve indicate that the value is below and above respectively, the no significant effect threshold, defined as 30% inhibition at 1 μg/mL at the time point indicated)”. In addition, the “Cell viability at time point in d-U937 cells, 24 h” value (“Cell viability at time point … 24 h” for short) in the data set on d-U937 cells was “−ve (−ve and +ve indicate that the value is below and above respectively, the no significant effect threshold, defined as 30% inhibition at 1 μg/mL at the time point indicated)”.
On to `Cc1ccc(-n2nc(C(C)(C)C)cc2NC(=O)Nc2ccc(Oc3ccnc(Nc4cccc(C(=O)NCCN(C)C)c4)n3)c3ccccc23)cc1` [Example 18, 3-((4-((4-(3-(3-(tert-butyl)-1-(p-tolyl)-1H-pyrazol-5-yl)ureido)naphthalen-1-yl)oxy)pyrimidin-2-yl)amino)-N-(2-(dimethylamino)ethyl)benzamide], for which the IC50 on cSrc was 7 nM; at Syk, above 1440 nM; at GSK3α, 295 nM; in data set [2], 1.8 nM; in data set [3], 2.3 nM. Besides, the EC50 in data set [1] was found to be 1.5 nM. Moreover, in the data set with d-U937 cells, the “Cell viability at time point in d-U937 cells, 4 h” value is “−ve (−ve and +ve indicate that the value is below and above respectively, the no significant effect threshold, defined as 30% inhibition at 1 μg/mL at the time point indicated)”. Also, the “Cell viability at time point … 24 h” value in the data set with d-U937 cells was “−ve (−ve and +ve indicate that the value is below and above respectively, the no significant effect threshold, defined as 30% inhibition at 1 μg/mL at the time point indicated)”.
With `COc1cc(Nc2nccc(Oc3ccc(NC(=O)Nc4cc(C(C)C)nn4-c4ccc(C)c(C)c4)c4ccccc34)n2)cc(C(=O)NCCN2CCOCC2)c1` [Example 56, 3-((4-((4-(3-(1-(3,4-dimethylphenyl)-3-isopropyl-1H-pyrazol-5-yl)ureido)naphthalen-1-yl)oxy)pyrimidin-2-yl)amino)-5-methoxy-N-(2-morpholinoethyl)benzamide], the IC50 is 5 nM on cSrc; 12 nM on Syk; above 13000 nM against GSK3α; 1.7 nM in data set [2]; 85.4 nM in data set [3]. Also, the EC50 in data set [1] was found to be 1.4 nM. In the data set on d-U937 cells, the “Cell viability at time point in d-U937 cells, 4 h” value was “−ve (−ve and +ve indicate that the value is below and above respectively, the no significant effect threshold, defined as 30% inhibition at 1 μg/mL at the time point indicated)”. Further, the “Cell viability at time point … 24 h” value with d-U937 cells was “−ve (−ve and +ve indicate that the value is below and above respectively, the no significant effect threshold, defined as 30% inhibition at 1 μg/mL at the time point indicated)”.
For the compound `COc1cc(Nc2nccc(Oc3ccc(NC(=O)Nc4cc(C(C)C)nn4-c4ccc(C)cc4)c4ccccc34)n2)cc(C(=O)N2CCN(C)CC2)c1` [Example 69, 1-(3-isopropyl-1-(p-tolyl)-1H-pyrazol-5-yl)-3-(4-((2-((3-methoxy-5-(4-methylpiperazine-1-carbonyl)phenyl)amino)pyrimidin-4-yl)oxy)naphthalen-1-yl)urea], the IC50 on cSrc is 1 nM; against Syk, 8 nM; on GSK3α, 282 nM; in data set [2] it was 0.3 nM; in data set [3], 7.5 nM. Further, in data set [1], the EC50 was found to be 0.2 nM. In the data set on d-U937 cells, the “Cell viability at time point in d-U937 cells, 4 h” value is “−ve (−ve and +ve indicate that the value is below and above respectively, the no significant effect threshold, defined as 30% inhibition at 1 μg/mL at the time point indicated)”. Besides, in the data set with d-U937 cells, the “Cell viability at time point … 24 h” value was “−ve (−ve and +ve indicate that the value is below and above respectively, the no significant effect threshold, defined as 30% inhibition at 1 μg/mL at the time point indicated)”.
